Experimental data from patent US8758816B2, “Compositions comprising azelastine and methods of use thereof” (priority 2004, dated 2014).
Counter-ions that a name gives are not always drawn.

Tested on: patients with seasonal allergic rhinitis (SAR)
Experiment: MP 428 study: individual symptom severity scores (runny nose, itchy nose, sneezing, congestion; 0-3 scale)
Type: in vivo, human
Conditions: Intent-to-Treat Population
Procedure: A two-week, randomized, double-blind study, which evaluated the effects of the co-administration of ASTELIN® (azelastine hydrochloride (HCl)) and FLONASE® (fluticasone propionate) compared to either product alone in patients with seasonal allergic rhinitis (SAR) was conducted during the 2006 Texas mountain cedar season. After a 5-day placebo lead-in period, 151 patients with moderate-to-severe allergic rhinitis symptoms were randomized to either: (1) (49 total patients) ASTELIN® (azelastine hydrochloride (HCl)) plus placebo saline nasal spray 2 sprays per nostril, 15 minutes apart, twice daily (AM & PM); (2) (50 total patients) FLONASE® (fluticasone propionate) plus placebo saline nasal spray, 2 sprays per nostril, 15 minutes apart, once daily (AM) and two sessions of placebo saline nasal spray, 2 sprays per nostril, 15 minutes apart (PM); or (3) (52 total patients) the co-administration of ASTELIN® (azelastine hydrochloride (HCl)) 2 sprays per nostril plus FLONASE® (fluticasone propionate) 2 sprays per nostril (AM), 15 minutes apart, and ASTELIN® (azelastine hydrochloride (HCl)) 2 sprays per nostril plus placebo saline nasal spray, 15 minutes apart, (PM) for a 2-week double-blind treatment period.
The primary efficacy variable was the change from baseline in the Total Nasal Symptom Score (TNSS), which comprised sneezing, itchy nose, runny nose, and nasal congestion (individual symptoms scores were assigned a value between 0 and 3, where 0=no symptoms and 3=severe symptoms). This study was not statistically designed to assess the differences between ASTELIN® and FLONASE®.
The results of the clinical trial are summarized and presented in Appendix A hereinbelow and in FIGS. 1-6. […] FIGS. 2-5 show the mean improvement in severity score (0-3 scale) from baseline for the symptoms of runny nose, itchy nose, sneezing and congestion, respectively.

Compound: CN1CCCC(n2nc(Cc3ccc(Cl)cc3)c3ccccc3c2=O)CC1 (racemic) [Azelastine, (±)-1-(2H)-phthalazinone, 4-[(4-chlorophenyl)methyl]-2-(hexahydro-1-methyl-1H-azepin-4-yl)-, mono-hydrochloride]
- Change from Baseline in AM and PM Combined Nasal Symptom Score: Congestion, LS Mean (Day 2): −0.73
- Change from Baseline in AM and PM Combined Nasal Symptom Score: Congestion, Mean (Day 2): −0.78
- Change from Baseline in AM and PM Combined Nasal Symptom Score: Congestion, Median (Day 2): −0.17
- Change from Baseline in AM and PM Combined Nasal Symptom Score: Itchy Nose, LS Mean (Day 2): −0.58
- Change from Baseline in AM and PM Combined Nasal Symptom Score: Itchy Nose, Mean (Day 2): −0.61
- Change from Baseline in AM and PM Combined Nasal Symptom Score: Itchy Nose, Median (Day 2): −0.50
- Change from Baseline in AM and PM Combined Nasal Symptom Score: Runny Nose, LS Mean (Day 2): −0.70
- Change from Baseline in AM and PM Combined Nasal Symptom Score: Runny Nose, Mean (Day 2): −0.72
- Change from Baseline in AM and PM Combined Nasal Symptom Score: Runny Nose, Median (Day 2): −0.42
- Change from Baseline in AM and PM Combined Nasal Symptom Score: Sneezing, LS Mean (Day 2): −1.09
- Change from Baseline in AM and PM Combined Nasal Symptom Score: Sneezing, Mean (Day 2): −1.11
- Change from Baseline in AM and PM Combined Nasal Symptom Score: Sneezing, Median (Day 2): −0.90
- Percent Change from Baseline in AM and PM Combined Nasal Symptom Score: Congestion, LS Mean (Day 2): −13.19%
- Percent Change from Baseline in AM and PM Combined Nasal Symptom Score: Congestion, Mean (Day 2): −14.05%
- Percent Change from Baseline in AM and PM Combined Nasal Symptom Score: Congestion, Median (Day 2): −3.23%
- Percent Change from Baseline in AM and PM Combined Nasal Symptom Score: Itchy Nose, LS Mean (Day 2): −13.14%
- Percent Change from Baseline in AM and PM Combined Nasal Symptom Score: Itchy Nose, Mean (Day 2): −13.55%
- Percent Change from Baseline in AM and PM Combined Nasal Symptom Score: Itchy Nose, Median (Day 2): −11.11%
- Percent Change from Baseline in AM and PM Combined Nasal Symptom Score: Runny Nose, LS Mean (Day 2): −13.68%
- Percent Change from Baseline in AM and PM Combined Nasal Symptom Score: Runny Nose, Mean (Day 2): −14.08%
- Percent Change from Baseline in AM and PM Combined Nasal Symptom Score: Runny Nose, Median (Day 2): −7.98%
- Percent Change from Baseline in AM and PM Combined Nasal Symptom Score: Sneezing, LS Mean (Day 2): −26.72%
- Percent Change from Baseline in AM and PM Combined Nasal Symptom Score: Sneezing, Mean (Day 2): −26.94%
- Percent Change from Baseline in AM and PM Combined Nasal Symptom Score: Sneezing, Median (Day 2): −21.05%
- Change from Baseline in AM and PM Combined Nasal Symptom Score: Congestion, LS Mean (Day 3): −0.62
- Change from Baseline in AM and PM Combined Nasal Symptom Score: Congestion, Mean (Day 3): −0.68
- Change from Baseline in AM and PM Combined Nasal Symptom Score: Congestion, Median (Day 3): 0.00
- Change from Baseline in AM and PM Combined Nasal Symptom Score: Itchy Nose, LS Mean (Day 3): −0.85
- Change from Baseline in AM and PM Combined Nasal Symptom Score: Itchy Nose, Mean (Day 3): −0.84
- Change from Baseline in AM and PM Combined Nasal Symptom Score: Itchy Nose, Median (Day 3): −0.75
- Change from Baseline in AM and PM Combined Nasal Symptom Score: Runny Nose, LS Mean (Day 3): −0.74
- Change from Baseline in AM and PM Combined Nasal Symptom Score: Runny Nose, Mean (Day 3): −0.79
- Change from Baseline in AM and PM Combined Nasal Symptom Score: Runny Nose, Median (Day 3): −1.00
- Change from Baseline in AM and PM Combined Nasal Symptom Score: Sneezing, LS Mean (Day 3): −0.99
- Change from Baseline in AM and PM Combined Nasal Symptom Score: Sneezing, Mean (Day 3): −0.97
- Change from Baseline in AM and PM Combined Nasal Symptom Score: Sneezing, Median (Day 3): −0.77
- Percent Change from Baseline in AM and PM Combined Nasal Symptom Score: Congestion, LS Mean (Day 3): −10.71%
- Percent Change from Baseline in AM and PM Combined Nasal Symptom Score: Congestion, Mean (Day 3): −11.70%
- Percent Change from Baseline in AM and PM Combined Nasal Symptom Score: Congestion, Median (Day 3): 0.00%
- Percent Change from Baseline in AM and PM Combined Nasal Symptom Score: Itchy Nose, LS Mean (Day 3): −19.04%
- Percent Change from Baseline in AM and PM Combined Nasal Symptom Score: Itchy Nose, Mean (Day 3): −18.60%
- Percent Change from Baseline in AM and PM Combined Nasal Symptom Score: Itchy Nose, Median (Day 3): −16.67%
- Percent Change from Baseline in AM and PM Combined Nasal Symptom Score: Runny Nose, LS Mean (Day 3): −13.72%
- Percent Change from Baseline in AM and PM Combined Nasal Symptom Score: Runny Nose, Mean (Day 3): −14.69%
- Percent Change from Baseline in AM and PM Combined Nasal Symptom Score: Runny Nose, Median (Day 3): −16.67%
- Percent Change from Baseline in AM and PM Combined Nasal Symptom Score: Sneezing, LS Mean (Day 3): −23.56%
- Percent Change from Baseline in AM and PM Combined Nasal Symptom Score: Sneezing, Mean (Day 3): −22.81%
- Percent Change from Baseline in AM and PM Combined Nasal Symptom Score: Sneezing, Median (Day 3): −16.08%
- Change from Baseline in AM and PM Combined Nasal Symptom Score: Congestion, LS Mean (Day 4): −0.78
- Change from Baseline in AM and PM Combined Nasal Symptom Score: Congestion, Mean (Day 4): −0.82
- Change from Baseline in AM and PM Combined Nasal Symptom Score: Congestion, Median (Day 4): −0.92
- Change from Baseline in AM and PM Combined Nasal Symptom Score: Itchy Nose, LS Mean (Day 4): −1.01
- Change from Baseline in AM and PM Combined Nasal Symptom Score: Itchy Nose, Mean (Day 4): −1.00
- Change from Baseline in AM and PM Combined Nasal Symptom Score: Itchy Nose, Median (Day 4): −0.73
- Change from Baseline in AM and PM Combined Nasal Symptom Score: Runny Nose, LS Mean (Day 4): −0.76
- Change from Baseline in AM and PM Combined Nasal Symptom Score: Runny Nose, Mean (Day 4): −0.79
- Change from Baseline in AM and PM Combined Nasal Symptom Score: Runny Nose, Median (Day 4): −0.43
- Change from Baseline in AM and PM Combined Nasal Symptom Score: Sneezing, LS Mean (Day 4): −1.34
- Change from Baseline in AM and PM Combined Nasal Symptom Score: Sneezing, Mean (Day 4): −1.32
- Change from Baseline in AM and PM Combined Nasal Symptom Score: Sneezing, Median (Day 4): −1.00
- Percent Change from Baseline in AM and PM Combined Nasal Symptom Score: Congestion, LS Mean (Day 4): −13.79%
- Percent Change from Baseline in AM and PM Combined Nasal Symptom Score: Congestion, Mean (Day 4): −14.44%
- Percent Change from Baseline in AM and PM Combined Nasal Symptom Score: Congestion, Median (Day 4): −16.67%
- Percent Change from Baseline in AM and PM Combined Nasal Symptom Score: Itchy Nose, LS Mean (Day 4): −22.54%
- Percent Change from Baseline in AM and PM Combined Nasal Symptom Score: Itchy Nose, Mean (Day 4): −22.23%
- Percent Change from Baseline in AM and PM Combined Nasal Symptom Score: Itchy Nose, Median (Day 4): −13.79%
- Percent Change from Baseline in AM and PM Combined Nasal Symptom Score: Runny Nose, LS Mean (Day 4): −15.76%
- Percent Change from Baseline in AM and PM Combined Nasal Symptom Score: Runny Nose, Mean (Day 4): −16.23%
- Percent Change from Baseline in AM and PM Combined Nasal Symptom Score: Runny Nose, Median (Day 4): −7.98%
- Percent Change from Baseline in AM and PM Combined Nasal Symptom Score: Sneezing, LS Mean (Day 4): −32.76%
- Percent Change from Baseline in AM and PM Combined Nasal Symptom Score: Sneezing, Mean (Day 4): −31.90%
- Percent Change from Baseline in AM and PM Combined Nasal Symptom Score: Sneezing, Median (Day 4): −25.00%
- Change from Baseline in AM and PM Combined Nasal Symptom Score: Congestion, LS Mean (Day 5): −1.02
- Change from Baseline in AM and PM Combined Nasal Symptom Score: Congestion, Mean (Day 5): −1.07
- Change from Baseline in AM and PM Combined Nasal Symptom Score: Congestion, Median (Day 5): −0.90
- Change from Baseline in AM and PM Combined Nasal Symptom Score: Itchy Nose, LS Mean (Day 5): −1.11
- Change from Baseline in AM and PM Combined Nasal Symptom Score: Itchy Nose, Mean (Day 5): −1.10
- Change from Baseline in AM and PM Combined Nasal Symptom Score: Itchy Nose, Median (Day 5): −0.75
- Change from Baseline in AM and PM Combined Nasal Symptom Score: Runny Nose, LS Mean (Day 5): −0.96
- Change from Baseline in AM and PM Combined Nasal Symptom Score: Runny Nose, Mean (Day 5): −0.97
- Change from Baseline in AM and PM Combined Nasal Symptom Score: Runny Nose, Median (Day 5): −0.67
- Change from Baseline in AM and PM Combined Nasal Symptom Score: Sneezing, LS Mean (Day 5): −1.36
- Change from Baseline in AM and PM Combined Nasal Symptom Score: Sneezing, Mean (Day 5): −1.34
- Change from Baseline in AM and PM Combined Nasal Symptom Score: Sneezing, Median (Day 5): −1.03
